Test results from article PMC6039436, “Radiobrominated benzimidazole-quinoline derivatives as Platelet-derived growth factor receptor beta (PDGFRβ) imaging probes” (Scientific Reports, 2018).
Marks after values point to notes of the source that are not given here.

Legend:
[1] = tested on: BxPC3-luc tumor; assay: Biodistribution in BxPC3-luc tumor-bearing mice; assay type: in vivo, BALB/c nu/nu mice
Protocol: We investigated the biodistribution of the radiotracers in BxPC3-luc tumor-bearing mice by co-injecting [^77Br]2 with [^125I]4 (Table 3), and [^77Br]3 with [^125I]5 (Table 4).
Animal experiments were conducted in strict accordance with the Guidelines for the Care and Use of Laboratory Animals of Kanazawa University. The animal experimental protocols used were approved by the Committee on Animal Experimentation of Kanazawa University (Permit Number: AP-163766). The animals were housed with free access to food and water at approximately 23 °C with a 12 h light/dark schedule. ddY mice (six-week-old, male, 27–30 g) and BALB/c nu/nu mice (four-week-old, female, 12–17 g) were purchased from Japan SLC Inc. (Hamamatsu, Japan). For preparing the tumor-bearing mice, BxPC3-luc cells (5 × 10^6 cells) were subcutaneously injected into the left shoulder of BALB/c nu/nu mice. The tumor reached palpable size after two weeks of the inoculation.
(§1) Mice were intravenously injected via the tail with 100 µL of saline solution of [^77Br]2 and [^125I]4 or [^77Br]3 and [^125I]5 (74 kBq, respectively), containing 10% ethanol and 1% tween-80. The ddY mice were sacrificed at 10 min, 1, 4, and 24 h postinjection. Meanwhile, tumor-bearing mice were sacrificed at 1 h postinjection.
(§2) Tissues in mice were resected and weighed. The radioactivity of the tissues was counted by a gamma counter and counts were corrected for background radiation. The data were expressed as percent injection dose per gram tissue (%ID/g).

[2] = design: method as in PMID 28838832; details: radioiodinated compounds; cited from earlier work
[3] = Biodistribution in ddY mice; assay type: in vivo; details: i.v. co-injection
Protocol: In this study, to minimize both the number of mice consumed in the experiment and the potential for experimental errors, we co-injected radiobrominated and radioiodinated compounds into mice[30],[31]. High radioactivity in the liver, small intestine, and large intestine was observed.
as §1, §2

[4] = tested on: BxPC3-luc cells (PDGFRβ-positive); assay: Cellular uptake study (double tracer method); assay type: cell-based; details: BxPC3-luc (PDGFRβ-positive) vs MCF7 (PDGFRβ-negative), 0.5–4 h
Protocol: Figure 5 Cellular uptake study. Time-dependent accumulation of (a) [^77Br]2 and [^125I]4 (b) [^77Br]3 and [^125I]5 in BxPC3-luc and MCF7 cells. Data were presented as mean ± SD for three samples.
Radiotracer uptake experiments in tumor cells were performed using BxPC3-luc and MCF7 cell lines. To compare the uptake between radiobrominated compounds, [^77Br]2 and [^77Br]3, and the corresponding radioiodinated compounds, [^125I]4 and [^125I]5, the cellular uptake experiments were performed by a double tracer method as described previously with a slight modification[30],[31],[35]. Briefly, the cells were seeded in RPMI 1640 medium containing 10% FBS and antibiotics on six-well plates (2 × 10^5 cells/well) for 24 h in a 5% CO2 incubator at 37 °C. After removal of medium, cells were incubated in medium without FBS containing [^77Br]2 (3.7 kBq/well) and [^125I]4 (3.7 kBq/well) or [^77Br]3 (3.7 kBq/well) and [^125I]5 (3.7 kBq/well) and tween-80 (0.1%) for 0.5, 1, 2 and 4 h. Radioiodinated compounds were prepared as described previously][24]. Cells were washed with ice-cold 1 mL of PBS and dissolved using 0.5 mL of 1 M NaOH and wells were washed with 1 M NaOH aqueous solution (0.5 mL). The radioactivity of pooled basic fractions was counted by a gamma counter. A range between 16 and 71 keV was used for measuring ^125I and between 95 and 700 for ^77Br. When radioactivity of ^77Br was counted, the crossover of ^125I activity into the ^77Br channel was negligible. More than one month after the experiment, the radioactivity of ^125I was determined because at that time ^77Br has been decayed and its radioactivity was negligible. The protein in the cell was quantified by a BCA Protein Assay Kit. All data were expressed as %dose/µg protein.

COCCOc1ccc2c(c1)ncn2-c1ccc2c([125I])ccc(N3CCC(N)CC3)c2n1 [[^125I]4, [^125I]1-{5-iodo-2-[5-(2-methoxyethoxy)-1H-benzo[d]imidazol-1-yl]quinolin-8-yl}piperidin-4-amine, reference compound]
Tumor-to-blood ratio of radioactivity ([1]; 1 h postinjection): 1.9
Radioactivity in Blood ([1]; i.v. co-injection, 1 h): 0.63 (0.05) %injected dose/gram of tissue
Radioactivity in Bone ([1]; i.v. co-injection, 1 h): 0.83 (0.10)^* %injected dose/gram of tissue
Radioactivity in Brain ([1]; i.v. co-injection, 1 h): 0.07 (0.00) %injected dose/gram of tissue
Radioactivity in BxPC3-luc tumor ([1]; i.v. co-injection, 1 h): 1.19 (0.06)^* %injected dose/gram of tissue
Radioactivity in Heart ([1]; i.v. co-injection, 1 h): 1.51 (0.40) %injected dose/gram of tissue
Radioactivity in Kidney ([1]; i.v. co-injection, 1 h): 15.56 (3.61) %injected dose/gram of tissue
Radioactivity in Large intestine ([1]; i.v. co-injection, 1 h): 2.46 (0.35) %injected dose/gram of tissue
Radioactivity in Liver ([1]; i.v. co-injection, 1 h): 11.02 (0.73) %injected dose/gram of tissue
Radioactivity in Lung ([1]; i.v. co-injection, 1 h): 9.14 (2.14) %injected dose/gram of tissue
Radioactivity in Muscle ([1]; i.v. co-injection, 1 h): 0.79 (0.10) %injected dose/gram of tissue
Radioactivity in Pancreas ([1]; i.v. co-injection, 1 h): 5.48 (0.93) %injected dose/gram of tissue
Radioactivity in Small intestine ([1]; i.v. co-injection, 1 h): 47.01 (5.56) %injected dose/gram of tissue
Radioactivity in Spleen ([1]; i.v. co-injection, 1 h): 2.76 (0.73) %injected dose/gram of tissue
Radioactivity in Stomach ([1]; i.v. co-injection, 1 h): 0.97 (0.19) %injected dose /organ
n-octanol/phosphate buffer partition coefficient (log P) [2]: 2.71 ± 0.03
Radioactivity in Blood ([3]; 10 min): 1.15 (0.08)^* %injected dose/gram tissue
Radioactivity in Bone ([3]; 10 min): 1.53 (0.14) %injected dose/gram tissue
Radioactivity in Brain ([3]; 10 min): 0.07 (0.00)^** %injected dose/gram tissue
Radioactivity in Heart ([3]; 10 min): 4.27 (0.27) %injected dose/gram tissue
Radioactivity in Kidney ([3]; 10 min): 14.44 (1.31) %injected dose/gram tissue
Radioactivity in Large intestine ([3]; 10 min): 0.80 (0.07)^* %injected dose/gram tissue
Radioactivity in Liver ([3]; 10 min): 11.59 (0.69) %injected dose/gram tissue
Radioactivity in Lung ([3]; 10 min): 9.64 (0.66)^* %injected dose/gram tissue
Radioactivity in Muscle ([3]; 10 min): 1.92 (0.18) %injected dose/gram tissue
Radioactivity in Pancreas ([3]; 10 min): 3.52 (0.33)^* %injected dose/gram tissue
Radioactivity in Small intestine ([3]; 10 min): 9.32 (2.30) %injected dose/gram tissue
Radioactivity in Spleen ([3]; 10 min): 5.08 (0.56) %injected dose/gram tissue
Radioactivity in Stomach ([3]; 10 min): 1.66 (0.11) %injected dose /organ
Radioactivity in Blood ([3]; 1 h): 0.32 (0.09) %injected dose/gram tissue
Radioactivity in Bone ([3]; 1 h): 1.22 (0.29) %injected dose/gram tissue
Radioactivity in Brain ([3]; 1 h): 0.15 (0.04) %injected dose/gram tissue
Radioactivity in Heart ([3]; 1 h): 1.23 (0.49) %injected dose/gram tissue
Radioactivity in Kidney ([3]; 1 h): 8.18 (2.71) %injected dose/gram tissue
Radioactivity in Large intestine ([3]; 1 h): 2.16 (0.54) %injected dose/gram tissue
Radioactivity in Liver ([3]; 1 h): 3.72 (1.18) %injected dose/gram tissue
Radioactivity in Lung ([3]; 1 h): 3.88 (0.72) %injected dose/gram tissue
Radioactivity in Muscle ([3]; 1 h): 0.78 (0.11) %injected dose/gram tissue
Radioactivity in Pancreas ([3]; 1 h): 2.49 (0.63) %injected dose/gram tissue
Radioactivity in Small intestine ([3]; 1 h): 25.44 (6.86) %injected dose/gram tissue
Radioactivity in Spleen ([3]; 1 h): 1.67 (0.41) %injected dose/gram tissue
Radioactivity in Stomach ([3]; 1 h): 1.76 (0.58) %injected dose /organ
Radioactivity in Blood ([3]; 4 h): 0.19 (0.05) %injected dose/gram tissue
Radioactivity in Bone ([3]; 4 h): 0.32 (0.08) %injected dose/gram tissue
Radioactivity in Brain ([3]; 4 h): 0.03 (0.00)^** %injected dose/gram tissue
Radioactivity in Heart ([3]; 4 h): 0.31 (0.05)^* %injected dose/gram tissue
Radioactivity in Kidney ([3]; 4 h): 4.28 (0.68) %injected dose/gram tissue
Radioactivity in Large intestine ([3]; 4 h): 51.43 (8.57) %injected dose/gram tissue
Radioactivity in Liver ([3]; 4 h): 3.45 (1.02) %injected dose/gram tissue
Radioactivity in Lung ([3]; 4 h): 2.18 (0.55) %injected dose/gram tissue
Radioactivity in Muscle ([3]; 4 h): 0.23 (0.06)^** %injected dose/gram tissue
Radioactivity in Pancreas ([3]; 4 h): 1.27 (0.11)^* %injected dose/gram tissue
Radioactivity in Small intestine ([3]; 4 h): 4.98 (0.89) %injected dose/gram tissue
Radioactivity in Spleen ([3]; 4 h): 0.43 (0.11) %injected dose/gram tissue
Radioactivity in Stomach ([3]; 4 h): 0.85 (0.21) %injected dose /organ
Radioactivity in Blood ([3]; 24 h): 0.03 (0.00)^** %injected dose/gram tissue
Radioactivity in Bone ([3]; 24 h): 0.15 (0.05)^** %injected dose/gram tissue
Radioactivity in Brain ([3]; 24 h): 0.02 (0.00)^** %injected dose/gram tissue
Radioactivity in Heart ([3]; 24 h): 0.10 (0.09)^** %injected dose/gram tissue
Radioactivity in Kidney ([3]; 24 h): 0.13 (0.03) %injected dose/gram tissue
Radioactivity in Large intestine ([3]; 24 h): 0.14 (0.02) %injected dose/gram tissue
Radioactivity in Liver ([3]; 24 h): 0.29 (0.08) %injected dose/gram tissue
Radioactivity in Lung ([3]; 24 h): 0.15 (0.08)^* %injected dose/gram tissue
Radioactivity in Muscle ([3]; 24 h): 0.04 (0.01)^** %injected dose/gram tissue
Radioactivity in Pancreas ([3]; 24 h): 0.07 (0.02) %injected dose/gram tissue
Radioactivity in Small intestine ([3]; 24 h): 0.04 (0.00)^** %injected dose/gram tissue
Radioactivity in Spleen ([3]; 24 h): 0.11 (0.09)^* %injected dose/gram tissue
Radioactivity in Stomach ([3]; 24 h): 0.05 (0.00)^** %injected dose /organ
Cellular uptake in BxPC3-luc cells [4]: higher than that in MCF7 cells
